Laboratory results taken from patent US9695155B2, “Herbicidal substituted pyrimidinyloxy benzene compounds” (E. I. DU PONT DE NEMOURS AND COMPANY, priority 2013, dated 2017).

Columns and labels:
sandbur [1] = test: Test E preemergence; assay type: in vivo, Cenchrus echinatus; details: for Sandbur plant response rating: scale 0 to 100 (0 no effect, 100 complete control); for Plant response rating, Sandbur: scale 0 to 100, 0 no effect, 100 complete control
Method in brief: (§1)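 Response was scored visually on a 0-100 scale (100 = complete control) versus controls after 14 to 21 days in the greenhouse. Test chemicals, formulated with surfactant in a non-phytotoxic solvent mixture, had been applied preemergence to seeds in silt loam soil or postemergence to 1- to 4-leaf plants in potting medium.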

waterhemp [2] = test: Test E preemergence; assay type: in vivo, Amaranthus rudis; details: for Waterhemp plant response rating: scale 0 to 100 (0 no effect, 100 complete control); for Plant response rating, Waterhemp: scale 0 to 100, 0 no effect, 100 complete control
Method in brief: as §1

Italian ryegrass = test: Test E preemergence; assay type: in vivo, Lolium multiflorum; details: for Ryegrass, Italian plant response rating: scale 0 to 100 (0 no effect, 100 complete control); for Plant response rating, Ryegrass, Italian: scale 0 to 100, 0 no effect, 100 complete control
Method in brief: as §1

large (Lg) crabgrass = test: Test E preemergence; assay type: in vivo, Digitaria sanguinalis; details: for Crabgrass, Large plant response rating: scale 0 to 100 (0 no effect, 100 complete control); for Plant response rating, Crabgrass, Large: scale 0 to 100, 0 no effect, 100 complete control
Method in brief: as §1

arrowleaf sida = test: Test E postemergence; assay type: in vivo, Sida rhombifolia; details: Postemergence, scale 0 to 100
Method in brief: as §1

ragweed = test: Test E preemergence; assay type: in vivo, Ambrosia elatior; details: for Ragweed plant response rating: scale 0 to 100 (0 no effect, 100 complete control); for Plant response rating, Ragweed: scale 0 to 100, 0 no effect, 100 complete control
Method in brief: as §1

kochia = test: Test E preemergence; assay type: in vivo, Kochia scoparia; details: for Kochia plant response rating: scale 0 to 100 (0 no effect, 100 complete control); for Plant response rating, Kochia: scale 0 to 100, 0 no effect, 100 complete control
Method in brief: as §1

barnyardgrass = test: Test E preemergence; assay type: in vivo, Echinochloa crus-galli; details: for Barnyardgrass plant response rating: scale 0 to 100 (0 no effect, 100 complete control); for Plant response rating, Barnyardgrass: scale 0 to 100, 0 no effect, 100 complete control
Method in brief: as §1

hairy beggarticks = test: Test E postemergence; assay type: in vivo, Bidens pilosa; details: Postemergence, scale 0 to 100
Method in brief: as §1

sandbur [3] = test: Test E postemergence; assay type: in vivo, Cenchrus echinatus; details: Postemergence, scale 0 to 100
Method in brief: as §1

lambsquarters = test: Test E preemergence; assay type: in vivo, Chenopodium album; details: for Lambsquarters plant response rating: scale 0 to 100 (0 no effect, 100 complete control); for Plant response rating, Lambsquarters: scale 0 to 100, 0 no effect, 100 complete control
Method in brief: as §1

[4] = system: waterhemp_RES1 (ALS & Triazine resistant common waterhemp); test: Test E postemergence; assay type: in vivo, Amaranthus rudis; details: Postemergence, scale 0 to 100
Method in brief: as §1

[5] = system: waterhemp_RES2 (ALS & HPPD resistant common waterhemp); test: Test E postemergence; assay type: in vivo, Amaranthus rudis; details: Postemergence, scale 0 to 100
Method in brief: as §1

waterhemp [6] = test: Test E postemergence; assay type: in vivo, Amaranthus rudis; details: Postemergence, scale 0 to 100
Method in brief: as §1

nightshade = test: Test E preemergence; assay type: in vivo, Solanum ptycanthum; details: for Nightshade plant response rating: scale 0 to 100 (0 no effect, 100 complete control); for Plant response rating, Nightshade: scale 0 to 100, 0 no effect, 100 complete control
Method in brief: as §1

Brazilian crabgrass = test: Test E preemergence; assay type: in vivo, Digitaria horizontalis; details: for Crabgrass, Brazil plant response rating: scale 0 to 100 (0 no effect, 100 complete control); for Plant response rating, Crabgrass, Brazil: scale 0 to 100, 0 no effect, 100 complete control
Method in brief: as §1

## N#Cc1cccc(Oc2ncc(Cl)cn2)c1-n1cc(Cl)cn1 [Compound 72]
Sandbur [1]; 16 g ai/ha
  Sandbur plant response rating: 25
Sandbur [1]; 31 g ai/ha
  Sandbur plant response rating: 40
Sandbur [1]; 62 g ai/ha
  Sandbur plant response rating: 30
Sandbur [1]; 125 g ai/ha
  Plant response rating, Sandbur: 35
Sandbur [1]; 250 g ai/ha
  Plant response rating, Sandbur: 50
Waterhemp [2]; 16 g ai/ha
  Waterhemp plant response rating: 95
Waterhemp [2]; 31 g ai/ha
  Waterhemp plant response rating: 98
Waterhemp [2]; 62 g ai/ha
  Waterhemp plant response rating: 100
Waterhemp [2]; 125 g ai/ha
  Plant response rating, Waterhemp: 100
Waterhemp [2]; 250 g ai/ha
  Plant response rating, Waterhemp: 100
Italian ryegrass; 16 g ai/ha
  Ryegrass, Italian plant response rating: 0
Italian ryegrass; 31 g ai/ha
  Ryegrass, Italian plant response rating: 15
Italian ryegrass; 62 g ai/ha
  Ryegrass, Italian plant response rating: 20
Italian ryegrass; 125 g ai/ha
  Plant response rating, Ryegrass, Italian: 35
Italian ryegrass; 250 g ai/ha
  Plant response rating, Ryegrass, Italian: 75
Large (Lg) crabgrass; 16 g ai/ha
  Crabgrass, Large plant response rating: 50
Large (Lg) crabgrass; 31 g ai/ha
  Crabgrass, Large plant response rating: 80
Large (Lg) crabgrass; 62 g ai/ha
  Crabgrass, Large plant response rating: 100
Large (Lg) crabgrass; 125 g ai/ha
  Plant response rating, Crabgrass, Large: 100
Large (Lg) crabgrass; 250 g ai/ha
  Plant response rating, Crabgrass, Large: 100
Arrowleaf sida; 62 g ai/ha
  Plant response rating, Arrowleaf Sida: 50
Arrowleaf sida; 125 g ai/ha
  Plant response rating, Arrowleaf Sida: 75
ragweed; 16 g ai/ha
  Ragweed plant response rating: 0
ragweed; 31 g ai/ha
  Ragweed plant response rating: 0
ragweed; 62 g ai/ha
  Ragweed plant response rating: 5
ragweed; 125 g ai/ha
  Plant response rating, Ragweed: 50
ragweed; 250 g ai/ha
  Plant response rating, Ragweed: 95
kochia; 16 g ai/ha
  Kochia plant response rating: 10
kochia; 31 g ai/ha
  Kochia plant response rating: 75
kochia; 62 g ai/ha
  Kochia plant response rating: 98
kochia; 125 g ai/ha
  Plant response rating, Kochia: 100
kochia; 250 g ai/ha
  Plant response rating, Kochia: 100
barnyardgrass; 16 g ai/ha, preemergence
  Barnyardgrass plant response rating: 0
barnyardgrass; 31 g ai/ha, preemergence
  Barnyardgrass plant response rating: 0
barnyardgrass; Preemergence, 62 g ai/ha
  Plant response rating, Barnyardgrass: 15
barnyardgrass; preemergence, 125 g ai/ha
  Plant response rating, Barnyardgrass: 35
barnyardgrass; preemergence, 250 g ai/ha
  Plant response rating, Barnyardgrass: 90
Hairy beggarticks; 62 g ai/ha
  Plant response rating, Beggarticks: 70
Hairy beggarticks; 125 g ai/ha
  Plant response rating, Beggarticks: 80
Sandbur [3]; 62 g ai/ha
  Plant response rating, Sandbur: 0
Sandbur [3]; 125 g ai/ha
  Plant response rating, Sandbur: 0
lambsquarters; 16 g ai/ha
  Lambsquarters plant response rating: 0
lambsquarters; 31 g ai/ha
  Lambsquarters plant response rating: 90
lambsquarters; 62 g ai/ha
  Lambsquarters plant response rating: 100
lambsquarters; 125 g ai/ha
  Plant response rating, Lambsquarters: 100
lambsquarters; 250 g ai/ha
  Plant response rating, Lambsquarters: 100
[4]; 62 g ai/ha
  Plant response rating, Waterhemp_RES1: 75
[4]; 125 g ai/ha
  Plant response rating, Waterhemp_RES1: 95
[5]; 62 g ai/ha
  Plant response rating, Waterhemp_RES2: 80
[5]; 125 g ai/ha
  Plant response rating, Waterhemp_RES2: 90
Waterhemp [6]; 62 g ai/ha
  Plant response rating, Waterhemp: 80
Waterhemp [6]; 125 g ai/ha
  Plant response rating, Waterhemp: 98
nightshade; 16 g ai/ha
  Nightshade plant response rating: 0
nightshade; 31 g ai/ha
  Nightshade plant response rating: 65
nightshade; 62 g ai/ha
  Nightshade plant response rating: 100
nightshade; 125 g ai/ha
  Plant response rating, Nightshade: 98
nightshade; 250 g ai/ha
  Plant response rating, Nightshade: 100
Brazilian crabgrass; 16 g ai/ha
  Crabgrass, Brazil plant response rating: 90
Brazilian crabgrass; 31 g ai/ha
  Crabgrass, Brazil plant response rating: 98
Brazilian crabgrass; 62 g ai/ha
  Crabgrass, Brazil plant response rating: 100
Brazilian crabgrass; 125 g ai/ha
  Plant response rating, Crabgrass, Brazil: 100
Brazilian crabgrass; 250 g ai/ha
  Plant response rating, Crabgrass, Brazil: 100
